Measurements from patent US11524944B2, “2-phenylpyrimidine-4-carboxamides as AHR inhibitors” (Bayer Aktiengesellschaft, priority 2017, dated 2022).
pIC50: −log10 of the molar value. Values joined by “and” are separate entries in the source; they are usually repeats but may differ in a detail not shown here. Equal values may be shown once.

Key:
[1] = molecular target: T1, Human AhR (Homo sapiens, UniProt P35869); assay: Transactivation assay in human cell line (in vitro assay 1): antagonism; format: cell-based; settings: U87 glioblastoma cells, AHR inducible firefly luciferase reporter (DRE), 150 μM kynurenic acid, 20 hours
T1 construct: host or cells: U87 glioblastoma cells, stably transfected with a DRE firefly luciferase reporter and a constitutive renilla reporter
T1 sequence (P35869 11-848): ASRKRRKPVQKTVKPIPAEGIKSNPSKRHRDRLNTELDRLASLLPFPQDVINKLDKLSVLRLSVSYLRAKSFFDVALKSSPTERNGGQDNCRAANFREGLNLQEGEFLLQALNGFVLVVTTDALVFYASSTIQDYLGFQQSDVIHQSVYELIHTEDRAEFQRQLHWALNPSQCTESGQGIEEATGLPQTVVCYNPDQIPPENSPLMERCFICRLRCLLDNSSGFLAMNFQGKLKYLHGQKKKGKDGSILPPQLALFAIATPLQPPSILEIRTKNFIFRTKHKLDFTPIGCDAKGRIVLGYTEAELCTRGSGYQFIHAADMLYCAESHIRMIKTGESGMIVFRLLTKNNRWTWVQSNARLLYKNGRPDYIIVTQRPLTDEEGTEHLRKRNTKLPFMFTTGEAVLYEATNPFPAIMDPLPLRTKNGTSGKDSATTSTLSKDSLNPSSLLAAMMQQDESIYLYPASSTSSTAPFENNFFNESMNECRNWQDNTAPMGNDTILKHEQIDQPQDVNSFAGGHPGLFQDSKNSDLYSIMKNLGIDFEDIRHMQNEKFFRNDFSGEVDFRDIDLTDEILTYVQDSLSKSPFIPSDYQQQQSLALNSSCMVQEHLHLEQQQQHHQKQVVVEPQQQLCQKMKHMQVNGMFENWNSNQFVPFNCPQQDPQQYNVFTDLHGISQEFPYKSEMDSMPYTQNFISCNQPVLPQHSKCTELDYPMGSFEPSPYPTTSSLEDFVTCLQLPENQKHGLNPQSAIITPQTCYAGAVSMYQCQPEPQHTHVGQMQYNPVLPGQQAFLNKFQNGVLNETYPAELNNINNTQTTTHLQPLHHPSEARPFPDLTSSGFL
How it was run: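 U87 glioblastoma cells with endogenous AHR, stably transfected with a DRE-driven firefly luciferase reporter and a constitutive Renilla reporter. Cells prestimulated with kynurenic acid before compound addition. Dual luciferase read-out, with Renilla signal used to flag toxicity.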

[2] = molecular target: T2, Mouse AhR (Mus musculus, UniProt P30561); assay: Transactivation assay in mouse cell line (in vitro assay 2): antagonism; format: cell-based; settings: Hepa 1c1c7 cells, AHR inducible firefly luciferase reporter (DRE), 200 μM kynurenic acid, 20 hours
T2 sequence (P30561 1-848 P471L/N533S/M589L): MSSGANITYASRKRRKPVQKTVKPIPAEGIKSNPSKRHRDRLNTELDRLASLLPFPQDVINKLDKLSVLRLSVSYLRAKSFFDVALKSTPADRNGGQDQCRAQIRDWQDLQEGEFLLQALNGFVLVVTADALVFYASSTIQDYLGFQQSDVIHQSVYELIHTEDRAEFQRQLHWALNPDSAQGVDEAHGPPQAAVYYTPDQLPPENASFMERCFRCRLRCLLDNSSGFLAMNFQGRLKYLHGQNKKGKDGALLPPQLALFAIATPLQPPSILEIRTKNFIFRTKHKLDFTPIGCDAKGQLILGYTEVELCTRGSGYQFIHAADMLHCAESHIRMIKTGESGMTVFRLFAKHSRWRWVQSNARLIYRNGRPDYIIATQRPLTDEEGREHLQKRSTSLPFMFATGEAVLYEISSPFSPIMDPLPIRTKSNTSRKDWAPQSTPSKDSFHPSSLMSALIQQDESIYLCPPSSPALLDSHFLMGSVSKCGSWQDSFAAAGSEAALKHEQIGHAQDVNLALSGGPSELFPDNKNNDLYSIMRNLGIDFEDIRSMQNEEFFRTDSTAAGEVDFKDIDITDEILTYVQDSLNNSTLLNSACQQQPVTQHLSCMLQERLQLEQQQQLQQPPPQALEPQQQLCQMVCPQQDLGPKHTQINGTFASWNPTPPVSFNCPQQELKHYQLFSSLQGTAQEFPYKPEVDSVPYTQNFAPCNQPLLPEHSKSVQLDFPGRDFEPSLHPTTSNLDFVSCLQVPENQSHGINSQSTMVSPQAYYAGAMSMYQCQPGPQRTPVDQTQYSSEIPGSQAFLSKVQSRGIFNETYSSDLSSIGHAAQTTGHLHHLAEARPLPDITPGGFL
Procedure: Examples were tested in selected biological assays one or more times. When tested more than once, data are reported as either average values or as median values, wherein • the average value, also referred to as the arithmetic mean value, represents the sum of the values obtained divided by the number of times tested, and • the median value represents the middle number of the group of values when ranked in ascending or descending order. If the number of values in the data set is odd, the median is the middle value. If the number of values in the data set is even, the median is the arithmetic mean of the two middle values.
Transactivation Assay in Mouse Cell Line (In Vitro Assay 2)
Transactivation assay was carried out in Hepa 1c1c7 cells (ATCC #CRL-2026) endogenously expressing AHR. In addition the cells were stably transfected with an AHR inducible firefly luciferase reporter gene construct that carried AHR-binding sites (DRE) in its promoter. Kynurenic acid is an endogenous AHR activating ligand and was used to prestimulate test cells prior to testing the antagonistic properties of compounds.
In Vitro Assay 2: Antagonism in Mouse Cell Line
Firefly luciferase activity was determined by the SteadyGlo Luciferase Assay System (Promega, #E2550).

Row | SMILES | pIC50 [1] | pIC50 [2]
1 | C[C@@H](CO)NC(=O)c1cc(-c2ccc(OC(F)(F)F)cc2)nc(-c2ccc(F)cc2)n1 [Example 28, 2-(4-fluorophenyl)-N-[(2S)-1-hydroxypropan-2-yl]-6-[4-(trifluoromethoxy)phenyl]pyrimidine-4-carboxamide] | 6.66 | 6.97
2 | Cc1cccc(-c2nc(C(=O)N[C@@H](C)CO)cc(-c3ccc(Cl)cc3)n2)c1 [Example 64, 6-(4-chlorophenyl)-N-[(2S)-1-hydroxypropan-2-yl]-2-(3-methylphenyl)pyrimidine-4-carboxamide] | 8.14 | 7.28
3 | C[C@@H](CO)NC(=O)c1cc(-c2cccc(F)c2)nc(-c2ccc(C(F)(F)F)cc2)n1 [Example 9, 6-(3-Fluorophenyl)-N-[(2S)-1-hydroxypropan-2-yl]-2-[4-(trifluoromethyl)phenyl]pyrimidine-4-carboxamide] | 7.82 | 8.06
4 | COc1ccc(-c2nc(C(=O)NCC(C)(C)O)cc(-c3ccc(OC(F)(F)F)cc3)n2)cc1 [Example 15, N-(2-hydroxy-2-methylpropyl)-2-(4-methoxyphenyl)-6-[4-(trifluoromethoxy)phenyl]pyrimidine-4-carboxamide] | 6.41 | < 4.70
5 | C[C@@H](CO)NC(=O)c1cc(-c2ccc(OC(F)(F)F)cc2)nc(-c2ccc(OC(F)(F)F)cc2)n1 [Example 12, N-[(2S)-1-hydroxypropan-2-yl]-2,6-bis[4-(trifluoromethoxy)phenyl]pyrimidine-4-carboxamide] | < 4.70 | < 4.70 and 4.75
6 | Cc1cc(-c2nc(C(=O)N[C@@H](C)CO)cc(-c3ccc(OC(F)(F)F)cc3)n2)ccc1F [Example 32, 2-(4-fluoro-3-methylphenyl)-N-[(2S)-1-hydroxypropan-2-yl]-6-[4-(trifluoromethoxy)phenyl]pyrimidine-4-carboxamide] | 6.78 | 6.42
7 | CC(C)(O)CNC(=O)c1cc(-c2ccc(Cl)cc2)nc(-c2ccc(C(F)F)cc2)n1 [Example 61, 6-(4-chlorophenyl)-2-[4-(difluoromethyl)phenyl]-N-(2-hydroxy-2-methylpropyl)pyrimidine-4-carboxamide] | < 4.70 | 5.15
8 | C[C@@H](CO)NC(=O)c1cc(-c2cccc(F)c2)nc(-c2ccc(OC(F)(F)F)cc2)n1 [Example 11, 6-(3-Fluorophenyl)-N-[(2S)-1-hydroxypropan-2-yl]-2-[4-(trifluoromethoxy)phenyl]pyrimidine-4-carboxamide] | 7.39 | 7.94
9 | C[C@@H](CO)NC(=O)c1cc(-c2ccc(OC(F)(F)F)cc2)nc(-c2ccc(F)c(Cl)c2)n1 [Example 33, 2-(3-chloro-4-fluorophenyl)-N-[(2S)-1-hydroxypropan-2-yl]-6-[4-(trifluoromethoxy)phenyl]pyrimidine-4-carboxamide] | 7.01 | 6.40
10 | CC(C)(O)CNC(=O)c1cc(-c2ccc(C(F)(F)F)cc2)nc(-c2cccc(F)c2)n1 [Example 8, 2-(3-Fluorophenyl)-N-(2-hydroxy-2-methylpropyl)-6-[4-(trifluoromethyl)phenyl]pyrimidine-4-carboxamide] | < 4.70 | < 4.70
11 | C[C@@H](CO)NC(=O)c1cc(-c2ccc(OC(F)(F)F)cc2)nc(-c2cccc(F)c2)n1 [Example 5, 2-(3-Fluorophenyl)-N-[(2S)-1-hydroxypropan-2-yl]-6-[4-(trifluoromethoxy)phenyl]pyrimidine-4-carboxamide] | 8.90 | 8.89
12 | CC(C)(O)CNC(=O)c1cc(-c2ccc(OC(F)(F)F)cc2)nc(-c2cccc(C#N)c2)n1 [Example 20, 2-(3-cyanophenyl)-N-(2-hydroxy-2-methylpropyl)-6-[4-(trifluoromethoxy)phenyl]pyrimidine-4-carboxamide] | 7.94 | 6.90
13 | Cc1cc(-c2nc(C(=O)N[C@@H](C)CO)cc(-c3ccc(Cl)cc3)n2)ccc1F [Example 65, 6-(4-chlorophenyl)-2-(4-fluoro-3-methylphenyl)-N-[(2S)-1-hydroxypropan-2-yl]pyrimidine-4-carboxamide] | 7.31 | 6.87
